In ChEMBL document CHEMBL5346914, “Optimization of carbazole carboxamide RORγt agonists: Challenges in improving the metabolic stability and maintaining the agonistic activity” (Eur J Med Chem, 2023):

Assays:
[1] = Microsomal stability in mouse liver microsome assessed as half life at 1 uM preincubated for 10 mins followed by NADPH addition measured upto 60 mins by HPLC-MS/MS analysis; type: ADME; settings: liver microsomes, time < 70 min
[2] = molecular target: T1, Nuclear receptor ROR-gamma (Homo sapiens, UniProt P51449); test: Agonist activity at human RORgammat LBD (265 to 507 residues) expressed in Escherichia coli BL21(DE3) cells incubated for 1 hr FRET assay
T1 sequence (P51449 whole entry): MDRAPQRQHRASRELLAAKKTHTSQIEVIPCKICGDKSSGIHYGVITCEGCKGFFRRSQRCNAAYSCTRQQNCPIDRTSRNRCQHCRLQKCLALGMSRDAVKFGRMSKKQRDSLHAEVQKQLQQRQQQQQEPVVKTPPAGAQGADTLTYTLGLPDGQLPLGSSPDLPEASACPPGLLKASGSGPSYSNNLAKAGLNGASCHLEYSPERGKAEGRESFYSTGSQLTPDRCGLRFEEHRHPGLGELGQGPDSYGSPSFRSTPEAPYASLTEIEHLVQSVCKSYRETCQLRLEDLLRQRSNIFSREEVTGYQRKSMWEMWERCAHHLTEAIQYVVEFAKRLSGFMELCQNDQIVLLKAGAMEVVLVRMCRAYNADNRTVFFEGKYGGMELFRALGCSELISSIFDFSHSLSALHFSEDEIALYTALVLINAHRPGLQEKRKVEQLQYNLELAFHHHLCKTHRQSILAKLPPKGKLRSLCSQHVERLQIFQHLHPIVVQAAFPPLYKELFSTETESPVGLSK

[3] = molecular target: T1, Nuclear receptor ROR-gamma; test: Agonist activity at Gal4-fused human RORgammat LBD expressed in HEK293T cells assessed as luciferase activity incubated for 16 to 20 hrs by luciferase reporter gene assay; type: cell-based
[4] = molecular target: T1, Nuclear receptor ROR-gamma; test: Inverse agonist activity at human RORgammat LBD (265 to 507 residues) expressed in Escherichia coli BL21(DE3) cells incubated for 1 hr FRET assay

| Structure (SMILES) | half-life at 1 µM [1] [min] | EC50 [2] [nM] | other results |
| --- | --- | --- | --- |
| CCn1c2ccc(CC3CC3)cc2c2cc(C(=O)NCc3ccc(S(C)(=O)=O)cn3)ccc21 | – | 12.5 | – |
| CCn1c2ccc(OC(C)C)cc2c2cc(C(=O)NCc3ccc(S(C)(=O)=O)cn3)ccc21 | 17 | – | – |
| CCS(=O)(=O)c1ccc(C(COC)NC(=O)c2ccc3c(c2)c2cc(CC4CC4)ccc2n3CCF)cc1 (racemic) | 37.1 | 28.3 | EC50 [3]: 348 nM |
| CCn1c2ccc(OC(C)C(F)(F)F)cc2c2cc(C(=O)NCc3ccc(S(=O)(=O)CC)cc3)ccc21 (stereo unspecified) | 19.9 | – | – |
| CCn1c2ccc(CC3COC3)cc2c2cc(C(=O)NCc3ccc(S(=O)(=O)CC)cc3)ccc21 | – | – | IC50 [4]: 6590 nM |
| CCn1c2ccc(OC(C)C)cc2c2cc(C(=O)NCc3ccc(S(=O)(=O)CC)cc3)ccc21 | 8.7 | – | – |
| CCn1c2ccc(OC(C)C)cc2c2cc(C(=O)NC(CO)c3ccc(S(=O)(=O)CC)cc3)ccc21 (racemic) | 17.9 | – | – |
| CCn1c2ccc(OC(C)C)cc2c2cc(C(=O)NCc3ccc(S(C)(=O)=O)cc3)ccc21 | 14.8 | 12.1 | – |
| CCn1c2ccc(OCC(C)C)cc2c2cc(C(=O)NCc3ccc(S(=O)(=O)CC)cc3)ccc21 | 20.4 | – | – |
| CCn1c2ccc(OC(C)C)cc2c2cc(C(=O)NCc3ccc(S(=O)(=O)CC)cn3)ccc21 | 18.2 | 5.6 | – |
| CCn1c2ccc(C(=O)NCc3ccc(S(=O)(=O)CC)cc3)cc2c2c(OC(C)C)cccc21 | – | 29.4 | – |
| CCS(=O)(=O)c1ccc(CNC(=O)c2ccc3c(c2)c2cc(OC(C)C)ccc2n3CCF)cc1 | 14.1 | 7.8 | – |

More lines, main results first:

| half-life at 1 µM [1] [min] | EC50 [2] [nM] | Structure (SMILES) | other results |
| --- | --- | --- | --- |
| 16.4 | – | CCn1c2ccc(OC3CCC3)cc2c2cc(C(=O)NCc3ccc(S(=O)(=O)CC)cc3)ccc21 | – |
| – | 181 | CCn1c2ccc(CN(C)C)cc2c2cc(C(=O)NCc3ccc(S(=O)(=O)CC)cc3)ccc21 | – |
| 26.9 | 10.9 | CCn1c2ccc(CC(C)C)cc2c2cc(C(=O)NCc3ccc(S(=O)(=O)CC)cc3)ccc21 | – |
| – | 9.7 | CCn1c2ccc(CC3CC3)cc2c2cc(C(=O)NCc3ccc(S(=O)(=O)CC)cn3)ccc21 | – |
| 16.5 | – | CCn1c2ccc(OC3CC3)cc2c2cc(C(=O)NCc3ccc(S(=O)(=O)CC)cc3)ccc21 | – |
| 41.4 | 14.7 | CCn1c2ccc(CC3CC3)cc2c2cc(C(=O)NC(CO)c3ccc(S(=O)(=O)CC)cc3)ccc21 (racemic) | – |
| 26.2 | – | CCn1c2ccc(CC(C)C(F)(F)F)cc2c2cc(C(=O)NCc3ccc(S(=O)(=O)CC)cc3)ccc21 (stereo unspecified) | – |
| 20.8 | 10.3 | CCn1c2ccc(CC(C)(C)F)cc2c2cc(C(=O)NCc3ccc(S(=O)(=O)CC)cc3)ccc21 | – |
| 48.8 | – | CCn1c2ccc(CC3CC3)cc2c2cc(C(=O)NCc3ccc(S(=O)(=O)CC)cc3)ccc21 | – |
| 40.8 | – | CCn1c2ccc(CC3CC3)cc2c2cc(C(=O)N[C@H](COC)c3ccc(S(=O)(=O)CC)cc3)ccc21 | – |
| > 145 | – | CCn1c2ccc(CC3CC3)cc2c2cc(C(=O)NC(COC)c3ccc(S(=O)(=O)CC)cc3)ccc21 (racemic) | – |
| > 154 | – | CCn1c2ccc(CC3CC3)cc2c2cc(C(=O)N[C@@H](COC)c3ccc(S(=O)(=O)CC)cc3)ccc21 | – |
| – | 12.6 | CCn1c2ccc(CC3CCC3)cc2c2cc(C(=O)NCc3ccc(S(=O)(=O)CC)cc3)ccc21 | – |
| 80.4 | 15.7 | CCS(=O)(=O)c1ccc(CNC(=O)c2ccc3c(c2)c2cc(CC4CC4)ccc2n3CCF)cc1 | EC50 [3]: 245 nM |
